Test results reported in patent publication US20240279237A1, “FUSED BICYCLIC HETEROARYL COMPOUNDS USEFUL AS NLRP3 INHIBITORS” (Hoffmann-La Roche Inc., priority 2021, published 2024).
Structures can show the parent of a compound that is named as a salt.

What follows are molecules tested against T1, NLRP3 (Homo sapiens, UniProt Q96P20) (assay: THP-1 Cells Pyroptosis Assay). Conditions: THP-1 cells with 1.0 μg/ml LPS; compound 3 hours; nigericin 5 μM 1 hr; resazurin readout.
T1 construct: Seed THP-1 cells (25,000 cells/well) containing 1.0 μg/ml LPS in 40 μl of RPMI medium; host or cells: THP-1 cells
T1 sequence (Q96P20 whole entry): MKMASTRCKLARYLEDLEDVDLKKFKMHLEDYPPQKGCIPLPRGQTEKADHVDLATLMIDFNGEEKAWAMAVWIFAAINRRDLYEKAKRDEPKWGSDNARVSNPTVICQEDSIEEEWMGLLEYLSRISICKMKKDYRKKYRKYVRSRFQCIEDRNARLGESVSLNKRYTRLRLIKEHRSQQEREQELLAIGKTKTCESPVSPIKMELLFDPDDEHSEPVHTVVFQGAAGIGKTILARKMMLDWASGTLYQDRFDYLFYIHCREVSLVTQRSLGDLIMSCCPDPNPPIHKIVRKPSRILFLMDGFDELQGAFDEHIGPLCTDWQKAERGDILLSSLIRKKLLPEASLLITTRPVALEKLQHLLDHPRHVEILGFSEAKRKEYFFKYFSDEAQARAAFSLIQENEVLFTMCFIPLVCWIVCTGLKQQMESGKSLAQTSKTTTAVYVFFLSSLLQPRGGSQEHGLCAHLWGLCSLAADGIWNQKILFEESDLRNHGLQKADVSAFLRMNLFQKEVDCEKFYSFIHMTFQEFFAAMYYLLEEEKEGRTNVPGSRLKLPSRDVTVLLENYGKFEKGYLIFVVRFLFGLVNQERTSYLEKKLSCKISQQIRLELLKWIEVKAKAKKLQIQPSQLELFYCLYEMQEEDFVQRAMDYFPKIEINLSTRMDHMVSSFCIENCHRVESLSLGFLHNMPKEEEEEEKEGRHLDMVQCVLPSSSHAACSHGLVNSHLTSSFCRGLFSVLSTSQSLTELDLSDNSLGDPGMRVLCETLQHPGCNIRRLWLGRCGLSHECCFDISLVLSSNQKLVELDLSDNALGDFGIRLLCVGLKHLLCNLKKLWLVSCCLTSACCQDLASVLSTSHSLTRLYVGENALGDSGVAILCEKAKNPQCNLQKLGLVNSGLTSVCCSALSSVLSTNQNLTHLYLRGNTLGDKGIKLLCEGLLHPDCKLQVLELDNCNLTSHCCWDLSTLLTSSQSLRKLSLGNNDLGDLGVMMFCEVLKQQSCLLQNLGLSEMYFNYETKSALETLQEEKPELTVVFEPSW
Assay type: cell-based
Procedure: The cells were routinely passaged and grown to confluency (˜10^6 cells/ml). On the day of the experiment, THP-1 cells were harvested and resuspended into RPMI medium (without FBS). The cells were then counted and viability (>90%) checked by Trypan blue (Sigma #T8154). […] To this diluted cell solution was added LPS (Sigma #L4524) to give a 1 μg/ml Final Assay Concentration (FAC). 40 μl of the final preparation was aliquoted into each well of a 96-well plate. The plate thus prepared was used for compound screening.
The following method step-by-step assay was followed for compound screening. • 1. […] Incubate for 3 hours at 37° C., 5% CO2 • 4. Add 5 μl nigericin (Sigma #N7143) (FAC 5 μM) to all wells • 5. Incubate for 1 hr at 37° C., 5% CO2 • 6. At the end of the incubation period, spin plates at 300×g for 3 mins and remove supernatant • 7. Then add 50 μl of resazurin (Sigma #R7017) (FAC 100 μM resazurin in RPMI medium without FBS) and incubate plates for a further 1-2 hours at 37° C. and 5% CO2 • 8.
“2-[2-[[(3R or 3S)-1-Ethyl-3-piperidyl]amino]-1H-imidazo[4,5-b]pyridin-5-yl]-3-methyl-5-(trifluoromethyl)phenol [Example 18A]” was tested, and the IC50 was 4.1 nM.
For “2-[2-[[(3S or 3R)-1-Ethyl-3-piperidyl]amino]-1H-imidazo[4,5-b]pyridin-5-yl]-3-methyl-5-(trifluoromethyl)phenol [Example 18B]”, the IC50 was 392 nM.
With “3-Methyl-2-[2-[[(2R)-1-methylazetidin-2-yl]methylamino]oxazolo[4,5-b]pyridin-5-yl]-5-(trifluoromethyl)phenol or 3-methyl-2-[2-[[(2S)-1-methylazetidin-2-yl]methylamino]oxazolo[4,5-b]pyridin-5-yl]-5-(trifluoromethyl)phenol [Example 66A]” the IC50 was 398 nM.
For “3-Methyl-2-[2-[[(2S)-1-methylazetidin-2-yl]methylamino]oxazolo[4,5-b]pyridin-5-yl]-5-(trifluoromethyl)phenol or 3-methyl-2-[2-[[(2R)-1-methylazetidin-2-yl]methylamino]oxazolo[4,5-b]pyridin-5-yl]-5-(trifluoromethyl)phenol [Example 66B]”, the IC50 was 256 nM.
With “5-Chloro-2-[2-[[(3R)-1-ethyl-3-piperidyl]amino]oxazolo[4,5-b]pyridin-5-yl]-3-(trifluoromethoxy)phenol;2,2,2-trifluoroacetic acid [Example 114]” the IC50 was 1.1 nM.
With “5-Chloro-2-[2-[[(3R)-1-ethyl-3-piperidyl]amino]oxazolo[4,5-b]pyridin-5-yl]-4-fluoro-3-methyl-phenol;2,2,2-trifluoroacetic acid salt [Example 22]” the IC50 was 5.4 nM.
For `CNC1CCCC(Nc2nc3nc(-c4c(C)cc(C(F)(F)F)cc4O)ccc3o2)C1` (mixture of isomers) [Example 7, 3-Methyl-2-[2-[[3-(methylamino)cyclohexyl]amino]oxazolo[4,5-b]pyridin-5-yl]-5-(trifluoromethyl)phenol], the IC50 was 82.1 nM.
Molecule `CCN1CCCC(Nc2nc3nc(-c4c(C)cc(C(F)(F)F)cc4O)ccc3o2)C1` (racemic) [Example 1, (rac)-2-[2-[(1-Ethyl-3-piperidyl)amino]oxazolo[4,5-b]pyridin-5-yl]-3-methyl-5-(trifluoromethyl)phenol] has an IC50 of 1.9 nM.
In the case of `Cc1cc(C(F)(F)F)cc(O)c1-c1ccc2oc(N3CCOCC3CN(C)C)nc2n1` (racemic) [Example 2, (rac)-2-[2-[3-[(Dimethylamino)methyl]morpholin-4-yl]oxazolo[4,5-b]pyridin-5-yl]-3-methyl-5-(trifluoromethyl)phenol], the IC50 is reported as 17.4 nM.
For `Cc1cc(C(F)(F)F)cc(O)c1-c1ccc2oc(N3CCCC(O)C3)nc2n1` (racemic) [Example 3, (rac)-1-[5-[2-Hydroxy-6-methyl-4-(trifluoromethyl)phenyl]oxazolo[4,5-b]pyridin-2-yl]piperidin-3-ol], the IC50 was 75.4 nM.
`Cc1cc(C(F)(F)F)cc(O)c1-c1ccc2oc(N3CCOC(CO)C3)nc2n1` (racemic) [Example 5, (rac)-[2-[2-(Hydroxymethyl)morpholin-4-yl]oxazolo[4,5-b]pyridin-5-yl]-3-methyl-5-(trifluoromethyl)phenol] gave an IC50 of 31.9 nM.
With `Cc1cc(C(F)(F)F)cc(O)c1-c1ccc2oc(C3CCC(=O)NC3)nc2n1` (racemic) [Example 9, (rac)-5-(5-(2-Hydroxy-6-methyl-4-(trifluoromethyl)phenyl)oxazolo[4,5-b]pyridin-2-yl) piperidin-2-one] the IC50 was 15.3 nM.
Work on `CNC1CCCN(c2nc3nc(-c4c(C)cc(C(F)(F)F)cc4O)ccc3o2)C1` (racemic) [Example 10, (rac)-3-Methyl-2-[2-[3-(methylamino)-1-piperidyl]oxazolo[4,5-b]pyridin-5-yl]-5-(trifluoromethyl) phenol] yielded an IC50 of 107 nM.
`Cc1cc(C(F)(F)F)cc(O)c1-c1ccc2oc(NC3CCCOC3)nc2n1` (racemic) [Example 11, (rac)-3-Methyl-2-[2-(tetrahydropyran-3-ylamino)oxazolo[4,5-b]pyridin-5-yl]-5-(trifluoromethyl)phenol] was tested, and the IC50 was 217 nM.
Work on `Cc1cc(C(F)(F)F)cc(O)c1-c1ccc2[nH]c(C3CCCCN3C)nc2n1` (racemic) [Example 16, (rac)-3-Methyl-2-(2-(1-methylpiperidin-2-yl)-3H-imidazo[4,5-b]pyridin-5-yl)-5-(trifluoromethyl)phenol] yielded an IC50 of 330 nM.
`Cc1cc(C(F)(F)F)cc(O)c1-c1ccc2[nH]c(C3CCCN3)nc2n1` (racemic) [Example 17, (rac)-3-Methyl-2-(2-(pyrrolidin-2-yl)-1H-imidazo[4,5-b]pyridin-5-yl)-5-(trifluoro-methyl)phenol] showed an IC50 of 183 nM.
`Cc1cc(C#N)cc(O)c1-c1ccc2oc(NC3CCCN4CCCC34)nc2n1` (racemic) [Example 29, (rac)-4-[2-(1,2,3,5,6,7,8,8a-Octahydroindolizin-8-ylamino)oxazolo[4,5-b]pyridin-5-yl]-3-hydroxy-5-methyl-benzonitrile] was tested, and the IC50 was 5.1 nM.
`CCN1CCCC(Nc2nc3nc(-c4c(C)cc(C(F)(F)F)cc4O)cnc3o2)C1` (racemic) [Example 32, (rac)-2-[2-[(1-Ethyl-3-piperidyl)amino]oxazolo[4,5-b]pyrazin-5-yl]-3-methyl-5-(trifluoromethyl)phenol;2,2,2-trifluoroacetic acid salt] gave an IC50 of 3 nM.
`Cc1cc(C(F)(F)F)cc(O)c1-c1ccc2oc(NC3CCOC3)nc2n1` (racemic) [Example 38, (rac)-3-Methyl-2-[2-(tetrahydrofuran-3-ylamino)oxazolo[4,5-b]pyridin-5-yl]-5-(trifluoromethyl)phenol] showed an IC50 of 85.3 nM.
`Cc1cc(Cl)cc(O)c1-c1cc(N2CCCC2=O)c2oc(N[C@@H]3CCCN(C)C3)nc2n1` (racemic) [Example 60, 1-[5-(4-Chloro-2-hydroxy-6-methyl-phenyl)-2-[[rac-(3R)-1-methyl-3-piperidyl]amino]oxazolo[4,5-b]pyridin-7-yl]pyrrolidin-2-one] showed an IC50 of 17.9 nM.
Molecule `Cc1cc(C(F)(F)F)cc(O)c1-c1ccc2oc(N3CCO[C@H]4CNC[C@@H]43)nc2n1` (racemic) [Example 64, 3-Methyl-2-[2-[rac-(4aS,7aS)-3,4a,5,6,7,7a-hexahydro-2H-pyrrolo[3,4-b][1,4]oxazin-4-yl]oxazolo[4,5-b]pyridin-5-yl]-5-(trifluoromethyl)phenol;2,2,2-trifluoroacetic acid] has an IC50 of 4.9 nM.
Work on `Cc1cc(Cl)cc(O)c1-c1ccc2oc(N[C@@H]3CCCN(C[C@@H]4CC[C@H]4O)C3)nc2n1` (racemic) [Example 118A, 5-chloro-2-[2-[[(3R)-1-[[rac trans-2-hydroxycyclobutyl]methyl]-3-piperidyl]amino]oxazolo[4,5-b]pyridin-5-yl]-3-methyl-phenol or 5-chloro-2-[2-[[(3R)-1-[[rac cis-2-hydroxycyclobutyl]methyl]-3-piperidyl]amino]oxazolo[4,5-b]pyridin-5-yl]-3-methyl-phenol] yielded an IC50 of 50.8 nM.
`Cc1cc(Cl)cc(O)c1-c1ccc2oc(N[C@@H]3CCCN(C[C@@H]4CC[C@H]4O)C3)nc2n1` (racemic) [Example 118B, 5-chloro-2-[2-[[(3R)-1-[[rac trans-2-hydroxycyclobutyl]methyl]-3-piperidyl]amino]oxazolo[4,5-b]pyridin-5-yl]-3-methyl-phenol or 5-chloro-2-[2-[[(3R)-1-[[rac cis-2-hydroxycyclobutyl]methyl]-3-piperidyl]amino]oxazolo[4,5-b]pyridin-5-yl]-3-methyl-phenol] was tested, and the IC50 was 30.6 nM.
Molecule `Cc1cc(C(F)(F)F)cc(O)c1-c1ccc2oc(N3CCOCC3CN(C)C)nc2n1` (single isomer, unassigned) [Example 2A, 2-[2-[(3R or 3S)-3-[(Dimethylamino)methyl]morpholin-4-yl]oxazolo[4,5-b]pyridin-5-yl]-3-methyl-5-(trifluoromethyl)phenol] has an IC50 of 129 nM.
Molecule `Cc1cc(C(F)(F)F)cc(O)c1-c1ccc2oc(N3CCOCC3CN(C)C)nc2n1` (single isomer, unassigned) [Example 2B, 2-[2-[(3S or 3R)-3-[(Dimethylamino)methyl]morpholin-4-yl]oxazolo[4,5-b]pyridin-5-yl]-3-methyl-5-(trifluoromethyl)phenol] has an IC50 of 16.9 nM.
With `Cc1cc(C(F)(F)F)cc(O)c1-c1ccc2oc(N3CCCC(O)C3)nc2n1` (single isomer, unassigned) [Example 3A, (3R or 3S)-1-[5-[2-hydroxy-6-methyl-4-(trifluoromethyl)phenyl]oxazolo[4,5-b]pyridin-2-yl]piperidin-3-ol] the IC50 was 75 nM.
For `Cc1cc(C(F)(F)F)cc(O)c1-c1ccc2oc(N3CCCC(O)C3)nc2n1` (single isomer, unassigned) [Example 3B, (3S or 3R)-1-[5-[2-hydroxy-6-methyl-4-(trifluoromethyl)phenyl]oxazolo[4,5-b]pyridin-2-yl]piperidin-3-ol], the IC50 was 28.6 nM.
`Cc1cc(C#N)cc(O)c1-c1ccc2oc(N3CCC4CCN(C)CC43)nc2n1` (single isomer, unassigned) [Example 27A, 4-[2-[(3aS,7aR or 3aR,7aS)-6-methyl-3,3a,4,5,7,7a-hexahydro-2H-pyrrolo[2,3-c]pyridin-1-yl]oxazolo[4,5-b]pyridin-5-yl]-3-hydroxy-5-methyl-benzonitrile] gave an IC50 of 578 nM.
